Columns and labels:
Type in all cases: in vivo, BALB/c mice
[1] = system: VEGFR-3; assay: VEGFR-3 mRNA in inflamed corneas, real-time PCR; settings: vs vehicle-treated controls
Method: (§1) The standard model for induction of inflammatory corneal NV is associated with development of intrastromal vessels in close association with a mixed-cell (primarily neutrophilic) infiltrate. (43,44) Three interrupted sutures (11-0 nylon, Sharpoint; Vanguard, Houston, Tex.) were placed intrastromally with two stromal incursions extending over 120° of the corneal circumference each to induce inflammatory corneal NV, which is also associated with significant LA, as described previously. (43) The corneas were followed by slit-lamp biomicroscopy for corneal NV development. […]
(§2) BALB/c mice were randomized to receive ATLa, or vehicle (normal saline) by subconjunctival injection in a masked fashion after suture or hydron pellet placement. […] (49) The physical properties were monitored routinely via LC/MS/MS matching the reported biological and physical properties prior to analysis in present experiments. […]
(§3) 1 μl of total cDNA, synthesized from 400 ng total RNA with random hexamers using Superscript™ III Reverse Transcriptase (Invitrogen, Carlsbad, Calif.), was loaded in each well and assays were performed in triplicates. […] The results were analyzed by comparative threshold cycle (CT) method. The relative expression level of each sample was expressed as fold change from normal control.

[2] = system: TNF-α; assay: TNF-α mRNA in inflamed corneas, real-time PCR
Method: as §1, §2, §3

[3] = system: VEGFR-2; assay: VEGFR-2 mRNA in inflamed corneas, real-time PCR; settings: 24 h and 72 h after suture placement
Method: as §1, §2, §3

[4] = system: VEGF-A-induced corneal HA and LA; assay: Corneal micropocket assay, VEGF-A pellet; settings: VEGF-A micropellet
Method: (§4) The corneal micropocket assay in mice and quantification of the resultant NV has been described previously. (45,46) In brief, 0.3 μl of hydron pellets (IFN Sciences, New Brunswick, N.J.) containing 30 ng of murine IL-1β (R&D Systems, Minneapolis, Minn.) or 200 ng of VEGF-A (gift from BRB Preclinical Repository, National Cancer Institute) were prepared and implanted into the corneal stroma of male BALB/c mice. After 7 days the animals were sacrificed and the corneas were harvested for quantitative analysis of HA and LA.
(§5) BALB/c mice were randomized to receive ATLa, or vehicle (normal saline) by subconjunctival injection in a masked fashion after suture or hydron pellet placement. […] (49) The physical properties were monitored routinely via LC/MS/MS matching the reported biological and physical properties prior to analysis in present experiments.
(§6) Full thickness corneal tissue or 8 μm-frozen sections were fixed in acetone for 15 minutes at room temperature. […] Finally, the samples were covered with mounting medium (Vector Laboratories, Burlingame, Calif.) and analyzed by epifluorescence microscopy (Eclipse E800; Nikon, Tokyo, Japan). […]
(§7) To quantify corneal angiogenesis, digital pictures of corneal flat-mounts were taken using an image analysis system (Spot Image Analysis, Diagnostic Instruments, Sterling Heights, Mich.). […]

[5] = system: IL-1β-induced corneal HA and LA; assay: Corneal micropocket assay, IL-1β pellet; settings: IL-1β micropellet
Method: as §4, §5, §6, §7

[6] = system: suture-induced corneal NV; assay: Suture-induced inflammatory corneal angiogenesis (HA and LA)
Method: (§8) Six to eight-week-old male BALB/c (Taconic Farms, Germantown, N.Y.) mice were used in all experiments. All experimental protocols were approved by the Schepens Eye Research Institute Animal Care and Use Committee, and all animals were treated according to the Association for Research in Vision and Ophthalmology Statement for the Use of Animals in Ophthalmic and Vision Research.
as §1, §5, §6
To quantify corneal angiogenesis, digital pictures of corneal flat-mounts were taken using an image analysis system (Spot Image Analysis, Diagnostic Instruments, Sterling Heights, Mich.). The areas covered by CD31^high/LYVE-1^−-vessels (blood vessels) or CD31^lowLYVE-1^high vessels (lymphatics) were measured morphometrically using NIH Image J software (version 1.34s; http://rsb.info.nih.gov/ij). […] The vessel density was calculated by the proportion of neovascularized area to the whole corneal area.

[7] = system: VEGF-A; assay: VEGF-A mRNA in inflamed corneas, real-time PCR; settings: 24 h and 72 h after suture placement
Method: as §1, §2, §3

[8] = system: IL-1β; assay: IL-1β mRNA in inflamed corneas, real-time PCR; settings: vs vehicle-treated controls
Method: as §1, §2, §3

[9] = system: IL-1α; assay: IL-1α mRNA in inflamed corneas, real-time PCR; settings: 24 h and 72 h
Method: as §1, §2, §3

[10] = system: mouse IL-1 beta; assay: IL-1β protein in inflamed corneas, ELISA
Method: FIG. 13, ATLa Regulates IL-1β. Mice were treated at 0 h and 48 h after suture-placement with ATLa or vehicle. Whole corneas were excised at 72 h, and subsequently freeze-thawed 3 times. Cornea was then homogenized using a pellet pestile motor with additional protease inhibitors. Homogenates were centrifuged at 12,000 rpm for 5 minutes and the supernatant was assayed for mouse IL-1 beta via ELISA (eBioscience, USA) according to the manufacturer's instructions.
as §1, §5

[11] = system: inflamed corneas; assay: Neutrophil and macrophage infiltration in suture-inflamed corneas
Method: as §8
The standard model for induction of inflammatory corneal NV is associated with development of intrastromal vessels in close association with a mixed-cell (primarily neutrophilic) infiltrate. (43,44) Three interrupted sutures (11-0 nylon, Sharpoint; Vanguard, Houston, Tex.) were placed intrastromally with two stromal incursions extending over 120° of the corneal circumference each to induce inflammatory corneal NV, which is also associated with significant LA, as described previously. (43) The corneas were followed by slit-lamp biomicroscopy for corneal NV development. NV was graded between 0 and 3, with increments of 0.5, using a grid system per each corneal quadrant based on the centripetal extent of the neovascular branches from the limbus. Scores for each quadrant then summed to derive the NV index (range 0 to 12) for each eye, as previously described. (43)
BALB/c mice were randomized to receive ATLa, or vehicle (normal saline) by subconjunctival injection in a masked fashion after suture or hydron pellet placement. The compounds were administered at a dose of 100 ng/10 μl per mouse every 48 h after suture or pellet placed. ATLa was synthesized as described previously. (49) The physical properties were monitored routinely via LC/MS/MS matching the reported biological and physical properties prior to analysis in present experiments.
Full thickness corneal tissue or 8 μm-frozen sections were fixed in acetone for 15 minutes at room temperature. To block non-specific staining, anti-FcR mAb ([…], FcγIII/II receptor) or 10% goat serum was used before primary antibodies or isotype-matched control antibodies were applied at 4° C. overnight. Thereafter, samples were incubated with secondary antibodies at RT. Each step was followed by three thorough washings in PBS for 5-10 minutes. Finally, the samples were covered with mounting medium (Vector Laboratories, Burlingame, Calif.) and analyzed by epifluorescence microscopy (Eclipse E800; Nikon, Tokyo, Japan). The following antibodies were used: FITC-conjugated rat anti-mouse CD31 (Santa Cruz Biotechnology, Santa Cruz, Calif.), purified rat anti-mouse neutrophil (NIMP-R14, Abcam, Cambridge, Mass.), purified rat anti-mouse F4/80 (Novus Biologicals, Littleton, Colo.) and purified rabbit anti-mouse LYVE-1 (Abcam, Cambridge, Mass.). The secondary antibodies were Rodamine-conjugated donkey anti-rabbit IgG and Rodamine-conjugated goat anti-rat IgG (Santa Cruz Biotechnology, Santa Cruz, Calif.). Isotype controls included FITC-conjugated rat IgG2a, purified rat IgG2b, and purified rabbit IgG (Santa Cruz Biotechnology, Santa Cruz, Calif.).

[12] = system: VEGF-D; assay: VEGF-D mRNA in inflamed corneas, real-time PCR; settings: vs vehicle-treated controls
Method: as §1, §2, §3

[13] = system: VEGF-C; assay: VEGF-C mRNA in inflamed corneas, real-time PCR; settings: 24 h and 72 h after suture placement
Method: as §1, §2, §3

[14] = 72 h after suture placement, n=3

COC(=O)CCC[C@H](O)[C@H](O)/C=C/C=C/C=C\C=C\[C@H](O)COc1ccc(F)cc1 [ATLa, 15-epi-16-(para-fluoro)-phenoxy-lipoxin A4 methyl ester]
mRNA expression of VEGFR-3 [1]: not significantly altered
increase in TNF-α expression ([2]; 24 h): significantly suppressed
increase in TNF-α expression ([2]; 72 h): not at 72 h
mRNA expression of VEGFR-2 [3]: lower mRNA expressions
LA ([4]; day 7): no significant reduction
BV density ([4]; day 7, n=4): 5.9±0.4%
LA ([5]; day 7): no significant reduction
BV density ([5]; day 7, n=4): 16.1±3.0%
growth of corneal neovessels, slit lamp biomicroscopy ([6]; 2-week time course): significant suppression of the angiogenic response
density of lymphatic vessels ([6]; day 14, vs vehicle): not observed
BV density ([6]; day 14 after suture placement, n=6): 8.26±0.63%
mRNA expression of VEGF-A [7]: lower mRNA expressions
reduction in the increase of IL-1β expression levels [8]: more than 50%
expression of IL-1α [9]: not significantly altered
IL-1 beta in corneas ([10]; 72 h, treated at 0 h and 48 h, n=4): 21.3 ± 0.8 pg/mL
decrease in IL-1β protein level ([10]; vs vehicle-treated group): 70%
inhibition of neutrophils recruitment ([11]; 24 and 72 h, 100 ng subconjunctival at 0 and 48 h): ~30%
neutrophils ([11]; 24 h after suture placement, n=3): 53±1 cells/section
reduction in macrophage infiltration ([11]; 72 h, vs vehicle): 25-40%
macrophage [11, 14]: 46±5 cells/section
neutrophils [11, 14]: 34±5 cells/section
mRNA expression of VEGF-D [12]: not significantly altered
mRNA expression of VEGF-C [13]: lower mRNA expressions
